Laboratory results published in patent publication US20040006103A1, “Use of chloroquine, hydroxychloroquine and 4 amino-quinolinic derivatives to obtain a drug for the anti retroviral therapy, active towards HIV sensitive strains and towards HIV strains which are resistant to both nucleosidic and non-nucleosidic reverse transcriptase inhibitors and to proteases …” (VALPHARMA S.A., priority 2002, published 2004).
Where two headings read alike, the source gives them in different places.

Columns and labels:
[1] = tested on: HIV-1 clinical isolated, characterised by mutations on the protease gene inducing geno-phenotypic resistance to NFV; assay: p24 production susceptibility test, Table 10, H-9 cells; format: cell-based; details: for S.I. CQ / Fen. CQ (fold): H-9; for S.I. CQ: I.C.50/E.C.50; for Fen. CQ (fold): ratio to HIV-IIIB; for EC50: Human immunodeficiency virus 1, H9, H-9, read-out: E.C.50 CQ
Description: (§1) For the phenotype of the nucleosidic, non-nucleosidic and proteases inhibitors was utilised a method which consider the use of human PBMC and the protocol standardised by the AIDS Clinical Trials Group, after verifying the genotype by sequence analysis.
(§2) In order to assay in vitro the susceptibility to chloroquine and hydroxychloroquine of the viral strains, it was used the protocol of the ACTG which is characterised by the measure, of the production of antigen p24 in strongly infected cells.
(§3) The susceptibility of the viral strains to chemotherapics was determined in cell cultures, prepared in 96 wells microplates, using, for the infection, 0.1 MOI.
(§4) The supernatant of the infected cultures (either in absence or in presence of different concentrations of chemotherapic) were tested for the production of p24 after 7 days, using an ELISA test which is commercially available.
(§5) The concentrations of chloroquine and hydroxychloroquine tested ranged from 0.5 to 15 uM. At the same time non-infected cells were incubated with concentrations of chloroquine and hydroxychloroquine ranging from 0 to 50 uM to evaluate the toxicity of the compound.
(§6) After 4 day from the infection, half the cellular medium was replaced with a medium containing the corresponding dilution of chloroquine and hydroxychloroquine. The percentage of inhibition of the HIV replication, induced by chloroquine and hydroxychloroquine, was determined, after 7 day from the infection, comparing the levels of p24 of this cultures and that of the control, infected and not treated with chloroquine and hydroxychloroquine.
(§7) Therefore, the E.C.50 of chloroquine and hydroxychloroquine expresses the concentration of chemotherapic that inhibits the 50% of production of p24 and the values were calculated using linear and non linear regression analysis (the significativity for the non linear regression was R^2>0.95).
(§8) In the same experimental conditions and in the same day, but with similar concentrations of chloroquine and hydroxychloroquine, it was evaluated the vitality of the infect cell cultures, and this was expressed as I.C.50.
(§9) I.C.50 (Inhibitory Concentration) indicates the concentration of the chemotherapic agent inhibiting the vitality of the cell cultures at a rate of 50%, when there is not infection.

[2] = tested on: HIV-1 strains cultivated in PBMC and isolated from patient naive to the treatment; assay: p24 production susceptibility test (ACTG protocol), Table 11; format: cell-based; details: for EC50: Human immunodeficiency virus 1, PBMC; for S.I. CQ: I.C.50/E.C.50
Method: as §2, §3, §4, §5, §6, §7, §8, §9

[3] = tested on: viruses resistant to both reverse transcriptase and protease inhibitors; assay: p24 production susceptibility test, summary for resistant viruses; format: cell-based, HIV-1; details: Human immunodeficiency virus 1, range
Method: as §2, §3
The supernatant of the infected cultures (either in absence or in presence of different concentrations of chemotherapic) were tested for the production of p24 after 7 days, using an ELISA test which is commercially available. […]
as §6, §7

[4] = tested on: HIV-1 clinical isolated, characterised by mutations in the protease gene inducing geno-phenotypic resistance to IDV; assay: p24 production susceptibility test (ACTG protocol), Table 9; format: cell-based; details: for EC50: Human immunodeficiency virus 1, PBMC; for S.I. CQ: I.C.50/E.C.50; for Fen. CQ (fold): ratio to HIV-IIIB
Description: as §1, §2, §3, §4, §5, §6, §7, §8, §9

[5] = tested on: HIV clinical isolated, characterised by mutations in the RT gene inducing geno-phenotypic resistance to AZT; assay: p24 production susceptibility test (ACTG protocol), Table 1; format: cell-based, HIV-1; details: for EC50: Human immunodeficiency virus 1, PBMC; for S.I. CQ: I.C.50/E.C.50; for CQ (fold): ratio to HIV-IIIB
Description: as §1, §2, §3, §4, §5, §6, §7, §8, §9

[6] = tested on: HIV-1 strains geno-phenotypically resistant to EFV; assay: p24 production susceptibility test, Table 7, MT-2 cells; format: cell-based; details: for EC50: Human immunodeficiency virus 1, MT2, MT-2, read-out: E.C.50 CQ; for S.I. CQ / Fen. CQ (fold): MT-2; for S.I. CQ: I.C.50/E.C.50; for Fen. CQ (fold): ratio to HIV-IIIB
Description: as §1, §2, §3, §4, §5, §6, §7, §8, §9

[7] = tested on: HIV-1 clinical isolated, characterised by mutations in the protease gene inducing geno-phenotypic resistance to SQV; assay: p24 production susceptibility test (ACTG protocol), Table 8; format: cell-based; details: for EC50: Human immunodeficiency virus 1, PBMC, read-out: E.C.50 CQ; for S.I. CQ / Fen. CQ (fold): PBMC; for S.I. CQ: I.C.50/E.C.50; for Fen. CQ (fold): ratio to HIV-IIIB
Description: as §1, §2, §3, §4, §5, §6, §7, §8, §9

[8] = PBMC, Gen. K20R E35D M36I I54V V82T
[9] = PBMC, Gen. D67N K70R T215F K219Q
[10] = PBMC, Gen. D 67 Ns K 70N T215F K219Q
[11] = PBMC, Gen. M41I M184V L210W R221K T215Y
[12] = PBMC, Gen. M41L D67N K70RM 184V T215F
[13] = PBMC, Gen. M41LD 76N K70R T215Y

CCN(CC)CCCC(C)Nc1ccnc2cc(Cl)ccc12 (stereo not drawn) [CQ, chloroquine]
S.I. CQ ([1]; Gen. D30N): 4.2
Fen. CQ (fold) ([1]; Gen. D30N): 1.3X fold
S.I. CQ ([1]; Gen. V82A): 5
Fen. CQ (fold) ([1]; Gen. V82A): 1.5X fold
EC50 ([1]; Gen. D30N): 2.5 µM
EC50 ([1]; Gen. V82A): 2.7 µM
EC50 ([2]; HIV-1 virus sensitive to the anti-retroviral treatment, range over each experiment, read-out: E.C.50): 1.5 to 3.5 µM
EC50 ([2]; PBMC, Virus N°1, read-out: E.C.50 CQ): 1.5 µM
EC50 ([2]; PBMC, Virus N°2, read-out: E.C.50 CQ): 2.2 µM
EC50 ([2]; PBMC, Virus N°3, read-out: E.C.50 CQ): 1.8 µM
EC50 ([2]; PBMC, Virus N°4, read-out: E.C.50 CQ): 2.5 µM
EC50 ([2]; PBMC, Virus N°5, read-out: E.C.50 CQ): 2 µM
S.I. CQ ([2]; PBMC, Virus N°1): 5
S.I. CQ ([2]; PBMC, Virus N°2): 4
S.I. CQ ([2]; PBMC, Virus N°3): 5
S.I. CQ ([2]; PBMC, Virus N°4): 3.5
S.I. CQ ([2]; PBMC, Virus N°5): 4
EC50 [3]: 1.5 to 3.5 µM
EC50 ([4]; PBMC, Gen. G48V V82A, read-out: E.C.50 CQ): 2.5 µM
EC50 ([4]; PBMC, Gen. I84V L90M, read-out: E.C.50 CQ): 2.2 µM
EC50 ([4]; PBMC, Gen. K20R E35D M36I I54V V82T, read-out: E.C.50 CQ): 1.8 µM
EC50 ([4]; PBMC, Gen. V82F L90M, read-out: E.C.50 CQ): 2.8 µM
EC50 ([4]; read-out: E.C.50 CQ (uM), PBMC, Gen. L10R M46I L63P V82T): 1.5 µM
S.I. CQ ([4]; PBMC, Gen. G48V V82A): 3.6
Fen. CQ (fold) ([4]; PBMC, Gen. G48V V82A): 1.3X fold
S.I. CQ ([4]; PBMC, Gen. I84V L90M): 4
Fen. CQ (fold) ([4]; PBMC, Gen. I84V L90M): 1.2X fold
S.I. CQ [4, 8]: 5.5
Fen. CQ (fold) [4, 8]: 1X fold
S.I. CQ ([4]; PBMC, Gen. L10R M46I L63P V82T): 5.5
Fen. CQ (fold) ([4]; PBMC, Gen. L10R M46I L63P V82T): 1X fold
S.I. CQ ([4]; PBMC, Gen. V82F L90M): 3.4
Fen. CQ (fold) ([4]; PBMC, Gen. V82F L90M): 1.5X fold
EC50 ([5]; PBMC, Gen. D67N K70R T215F K219Q, read-out: E.C.50 CQ): 2 µM
EC50 ([5]; PBMC, Gen. D 67 Ns K 70N T215F K219Q, read-out: E.C.50 CQ): 3 µM
EC50 ([5]; PBMC, Gen. K70R T215F K219Q, read-out: E.C.50 CQ): 1.8 µM
EC50 ([5]; PBMC, Gen. M41I M184V L210W R221K T215Y, read-out: E.C.50 CQ): 1.5 µM
EC50 ([5]; PBMC, Gen. M41I T215Y, read-out: E.C.50 CQ): 2 µM
EC50 ([5]; PBMC, Gen. M41L D67N K70RM 184V T215F, read-out: E.C.50 CQ): 2.5 µM
EC50 ([5]; read-out: E.C.50 CQ (uM), PBMC, Gen. M41LD 76N K70R T215Y): 3 µM
S.I. CQ [5, 9]: 4
CQ (fold) [5, 9]: 1.1X fold
S.I. CQ [5, 10]: 3
CQ (fold) [5, 10]: 2X fold
S.I. CQ ([5]; PBMC, Gen. K70R T215F K219Q): 5.5
CQ (fold) ([5]; PBMC, Gen. K70R T215F K219Q): 1.1X fold
S.I. CQ [5, 11]: 6
CQ (fold) [5, 11]: 0.8X fold
S.I. CQ ([5]; PBMC, Gen. M41I T215Y): 4
CQ (fold) ([5]; PBMC, Gen. M41I T215Y): 1.1X fold
S.I. CQ [5, 12]: 3.6
CQ (fold) [5, 12]: 1.3X fold
S.I. CQ [5, 13]: 3.2
CQ (fold) [5, 13]: 1.6X fold
EC50 ([6]; Gen. K101D K103N): 2.8 µM
EC50 ([6]; Gen. K103N V108D): 2.2 µM
EC50 ([6]; Gen. K103N Y181C): 2.5 µM
EC50 ([6]; Gen. K103N): 2.2 µM
EC50 ([6]; Gen. L100I K103N): 3.2 µM
EC50 ([6]; Gen. Y181C): 1.8 µM
S.I. CQ ([6]; Gen. K101D K103N): 7.8
Fen. CQ (fold) ([6]; Gen. K101D K103N): 1.8X fold
S.I. CQ ([6]; Gen. K103N V108D): 6.8
Fen. CQ (fold) ([6]; Gen. K103N V108D): 1.4X fold
S.I. CQ ([6]; Gen. K103N Y181C): 8
Fen. CQ (fold) ([6]; Gen. K103N Y181C): 1.6X fold
S.I. CQ ([6]; Gen. K103N): 8.5
Fen. CQ (fold) ([6]; Gen. K103N): 1.4X fold
S.I. CQ ([6]; Gen. L100I K103N): 6.2
Fen. CQ (fold) ([6]; Gen. L100I K103N): 2.1X fold
S.I. CQ ([6]; Gen. Y181C): 8.5
Fen. CQ (fold) ([6]; Gen. Y181C): 1.2X fold
EC50 ([7]; Gen. G48V I84V A74V L90M): 1.8 µM
EC50 ([7]; Gen. G48V V82A): 3.5 µM
EC50 ([7]; Gen. I84V L90M): 2.5 µM
EC50 ([7]; Gen. M46I G48V L63P L90M): 2 µM
EC50 ([7]; Gen. V82A L90M): 1.5 µM
S.I. CQ ([7]; Gen. G48V I84V A74V L90M): 5.5
Fen. CQ (fold) ([7]; Gen. G48V I84V A74V L90M): 1X fold
S.I. CQ ([7]; Gen. G48V V82A): 3.4
Fen. CQ (fold) ([7]; Gen. G48V V82A): 1.9X fold
S.I. CQ ([7]; Gen. I84V L90M): 3.6
Fen. CQ (fold) ([7]; Gen. I84V L90M): 1.3X fold
S.I. CQ ([7]; Gen. M46I G48V L63P L90M): 6.7
Fen. CQ (fold) ([7]; Gen. M46I G48V L63P L90M): 1.1X fold
S.I. CQ ([7]; Gen. V82A L90M): 6
Fen. CQ (fold) ([7]; Gen. V82A L90M): 0.8X fold
